Measurements: patent US20230210854A1, “MONO- AND COMBINATION THERAPIES” (Recurium IP Holdings, LLC, priority 2020, published 2023)

Experiments:
KMS-12-BM cells = assay: CellTiter-Glo cell proliferation assay, KMS-12-BM; type: cell-based; settings: Homo sapiens, 90 nM, 72 hrs
Protocol: (§1) Cell proliferation was measured using the CellTiter-Glo® Luminescent Cell Viability Assay. The assay involved the addition of a single reagent (CellTiter-Glo® Reagent) directly to cells cultured in serum-supplemented medium. KMS-12-BM, OPM-2 and MOLP8 cells were cultured according to DSMZ recommendations and were seeded at 20,000 cells per well. Each compound evaluated was prepared as a DMSO stock solution (10 mM). Compounds were tested in triplicate on each plate, with a single concentration indicated in each table. Compound treatment (10.0 µL) was added to the cells from the 10x concentration of each compound. Plates were then incubated at 37° C., 5% CO2. After 72 hrs, cell plates were equilibrated at room temperature (rt) for approximately 30 mins. An equi-volume amount of CellTiter-Glo® Reagent (100 µL) was added to each well. Plates were mixed for 2 mins on an orbital shaker to induce cell lysis and then incubated at rt for 10 mins to stabilize the luminescent signal. Luminescence was recorded using a SpectraMAX, M5e plate reader according to CellTiter-Glo protocol.

OPM-2 cells = assay: CellTiter-Glo cell proliferation assay, OPM-2; type: cell-based; settings: Homo sapiens; OPM-2, 50 nM, 72 hrs
Protocol: as §1

MOLP-8 cells = assay: CellTiter-Glo cell proliferation assay, MOLP-8; type: cell-based; settings: Homo sapiens; MOLP-8, 2 nM, 72 hrs
Protocol: as §1

A427 cells = assay: A427 cell growth study (DNA content, Hoechst 33258); type: cell-based; settings: suboptimal doses, single agent, Day 6
Protocol: Experiment method: 3000 of A427 cells were seeded in 96-well pates and allowed to adhere overnight. Treatments with Compound (1A) and/or Triapine were added the next day. Cells were harvested at Day 6 and were assayed for DNA content using Hoechst 33258. Fluorescence intensity was read at excitation 346 nm and emission 460 nm using a plate reader. Data shown in FIG. 27 are representative of three independent experiments (raw fluorescence reading).

TOV21G xenograft = TOV21G xenograft model; type: in vivo, BALB/c nude mice; settings: 50 mg/kg i.p. once per week
Protocol: TOV21G xenograft model was established by the inoculation of 200 µL of TOV-21G tumor cell suspension (5×10^6 cells/mouse, with 50% Matrigel) subcutaneously into the right subaxillary of BALB/c nude mice. When tumors reached approximately 100 to 150 mm^3, tumor bearing animals were randomly distributed into treatment groups of 10 animals each. Animals were orally dosed with vehicle or Compound (1A) at 60 mg/kg for 19 days, carboplatin at 50 mg/kg by the i.p. injection once per week, and Compound (1A) treatment in combination with carboplatin. Tumor volumes were evaluated twice per week to calculate tumor volume over time, and the mice were weighed twice per week as a surrogate for signs of toxicity.

OVCAR3 xenograft = assay: OVCAR3 ovarian tumor model, Doxorubicin combination; type: in vivo, BABL/c nude mice; settings: OVCAR3, 2.5 mg/kg i.p. once per week for 4 weeks, single agent
Protocol: OVCAR3 xenograft model was established by the inoculation of 200 µL of OVCAR3 tumor cell suspension (1×10^7 cells/mouse, with 50% Matrigel) subcutaneously into the right subaxillary of BABL/c nude mice. When tumors reached approximately 180.8 mm^3, tumor bearing animals were randomly distributed into treatment groups of 10 animals each. […] Tumor volumes were evaluated twice per week to calculate tumor volume over time, and the mice were weighed twice per week as a surrogate for signs of toxicity.

x2-MDA-MB-468 tumor = assay: x2 MDA-MB-468 TNBC tumor model, Niraparib combination; type: in vivo, mouse; settings: x2-MDA-MB-468, 45 mg/kg orally, 7 days on, 7 days off for 4 cycles
Protocol: The x2-MDA-MB-468 cells (ATCC-Chempartner) were maintained in vitro as a monolayer culture in DMEM medium added with 10% FBS, 100 U/mL penicillin and 100 µg/mL streptomycin at 37° C. in an atmosphere of 5% CO2 in air. Each mouse was implanted subcutaneously on right flank with 1 × 10^7 x2-MDA-MD-468 cells in 0.2 mL mixture of RPMI1640 medium with BD Matrigel (base medium: Matrigel=100 uL:100 uL) for tumor development. […] Tumor volumes were evaluated twice per week to calculate tumor volume over time, and the mice were weighed twice per week as a surrogate for signs of toxicity.

Nc1ccn([C@@H]2O[C@H](CO)[C@@H](O)C2(F)F)c(=O)n1 [Gemcitabine]
inhibition at 0.09 µM (KMS-12-BM cells): 38% | inhibition at 0.05 µM (OPM-2 cells): 35.1% | inhibition at 0.002 µM (MOLP-8 cells): 22%

NC(=S)N/N=C/c1ncccc1N [Triapine]
A427 cell growth (A427 cells): do not inhibit A427 cell growth

N.N.O=C([O-])C1(C(=O)[O-])CCC1.[Pt+2] [carboplatin]
TGI (TOV21G xenograft): 89.75%

COc1cccc2c1C(=O)c1c(O)c3c(c(O)c1C2=O)C[C@@](O)(C(=O)CO)C[C@@H]3O[C@H]1C[C@H](N)[C@H](O)[C@H](C)O1 [doxorubicin]
TGI (OVCAR3 xenograft): 43.11%

NC(=O)c1cccc2cn(-c3ccc([C@@H]4CCCNC4)cc3)nc12 [niraparib]
TGI (x2-MDA-MB-468 tumor): 47.7%
